Assay results published in patent US11147272B2, “Pyridone compounds and agricultural and horticultural fungicides comprising the same as active ingredients” (MITSUI CHEMICALS AGRO, INC., priority 2017, dated 2021).

Legend:
Botrytis cinerea = experiment: Test Example B: Gray mold on tomato; details: Gray mold on tomato; control value class
[1] = test system: Colletotrichum orbiculare; experiment: Test Example H: Anthracnose on cucumber; details: Anthracnose on cucumber; 250 ppm spray, 6 to 10 days after inoculation
Experimental: Seeds of a test plant (cucumber variety: Sagami Hanjiro) were planted and cultivated until the first leaf appeared. In the test, the inventive compounds were dissolved into dimethyl sulfoxide-methanol mixture solution (volume ratio: 9/1), and the resultant solutions were diluted with well water to a concentration of 250 ppm to obtain the drug solutions. The drug solutions were sprayed to the test plant (2.5 ml/pot). After the drug solutions dried, a conidial suspension (2-4×10^5 conidia/ml) of Colletotrichum orbiculare was inoculated to the plant by spraying. After the inoculation, the plant was kept in a mist chamber at room temperature of 20 to 23° C. for about 24 hours to promote the onset of disease. The degrees of disease development were investigated 6 to 10 days after the inoculation, and the effectiveness of the drug solutions was evaluated.
In Test Examples described above, the degrees of disease development were evaluated in increments of 0.05 from 0 (as no incidence of disease) to 3 (as the degree of disease development in an untreated plant group). Further, control values were calculated using the following equation based on the degree of disease development.
n=Degree of disease development in each treated group
In the table, H: more than 50% control value, L: 50% or less control value, and nt: not tested.

Puccinia recondita = experiment: Test Example E: Brown rust on wheat; format: in vivo; details: Brown rust on wheat; control value class
Alternaia brassicicola = experiment: Test Example C: Alternaria sooty spot on cabbage; format: in vivo; details: Alternaria sooty spot on cabbage; control value class
From the text: Seeds of a test plant (cabbage variety: Shikidori) were planted and cultivated until the cotyledons extended.
<Control Value> Control value=100{1−(n/3)}

Plasmopara viticola = experiment: Test Example G: Downy mildew on vine; details: Downy mildew on vine; 250 ppm spray, 7 to 10 days after inoculation
[2] = test system: Blumeria graminis f. sp. hordei; experiment: Test Example D: Powdery mildew on barley; details: Powdery mildew on barley; control value class
Magnaporthe grisea = experiment: whole plant or invertebrate; format: in vivo; details: Blast on rice; control value class
Phytophthora infestans = experiment: whole plant or invertebrate; format: in vivo; details: Late blight on tomato; control value class

Row | Compound | Test B control value (Botrytis cinerea) | Test H control value [1] | Test E control value (Puccinia recondita) | Test C control value (Alternaia brassicicola) | Test G control value (Plasmopara viticola) | Test D control value [2] | Test A control value (Magnaporthe grisea) | Test F control value (Phytophthora infestans)
1 | CCCc1ccc(=O)n(CC)c1-c1ccc(OC)cc1Cl [compound 318] | H (more than 50% control value) | H (more than 50% control value) | H (more than 50% control value) | H (more than 50% control value) | L (50% or less control value) | H (more than 50% control value) | L (50% or less control value) | H (more than 50% control value)
2 | CCc1ccc(=O)n(CC)c1-c1ccc(OC)cc1Cl [compound 319] | H (more than 50% control value) | H (more than 50% control value) | H (more than 50% control value) | H (more than 50% control value) | L (50% or less control value) | H (more than 50% control value) | L (50% or less control value) | L (50% or less control value)
3 | CCCc1cc(Cl)c(=O)n(CC)c1-c1ccc(OC)cc1Cl [compound 320] | H (more than 50% control value) | H (more than 50% control value) | H (more than 50% control value) | H (more than 50% control value) | H (more than 50% control value) | H (more than 50% control value) | H (more than 50% control value) | H (more than 50% control value)
4 | CCCc1cc(Br)c(=O)n(CC)c1-c1ccc(OC)cc1Cl [compound 321] | H (more than 50% control value) | H (more than 50% control value) | H (more than 50% control value) | H (more than 50% control value) | H (more than 50% control value) | H (more than 50% control value) | H (more than 50% control value) | L (50% or less control value)
5 | CCc1ccc(=O)n(C)c1-c1ccc(OC)cc1Cl [compound 322] | H (more than 50% control value) | H (more than 50% control value) | H (more than 50% control value) | L (50% or less control value) | L (50% or less control value) | L (50% or less control value) | L (50% or less control value) | L (50% or less control value)
6 | CCCC1=C(c2ccc(F)cc2Cl)N(C)C(=O)CC1 [compound 323] | H (more than 50% control value) | L (50% or less control value) | L (50% or less control value) | L (50% or less control value) | L (50% or less control value) | L (50% or less control value) | L (50% or less control value) | L (50% or less control value)
7 | CCc1cc(Cl)c(=O)n(C)c1-c1ccc(OC)cc1Cl [compound 324] | H (more than 50% control value) | H (more than 50% control value) | H (more than 50% control value) | H (more than 50% control value) | H (more than 50% control value) | L (50% or less control value) | L (50% or less control value) | L (50% or less control value)
8 | CCc1cc(Br)c(=O)n(C)c1-c1ccc(OC)cc1Cl [compound 325] | H (more than 50% control value) | H (more than 50% control value) | H (more than 50% control value) | H (more than 50% control value) | H (more than 50% control value) | L (50% or less control value) | L (50% or less control value) | L (50% or less control value)
9 | CCn1c(-c2c(F)cc(F)cc2F)c(C(Br)=CBr)cc(Cl)c1=O [compound 326] | H (more than 50% control value) | H (more than 50% control value) | H (more than 50% control value) | H (more than 50% control value) | L (50% or less control value) | H (more than 50% control value) | H (more than 50% control value) | L (50% or less control value)
10 | CCc1cc(Cl)c(=O)n(CC)c1-c1ccc(OC)cc1Cl [compound 327] | H (more than 50% control value) | H (more than 50% control value) | H (more than 50% control value) | H (more than 50% control value) | H (more than 50% control value) | L (50% or less control value) | H (more than 50% control value) | H (more than 50% control value)
11 | CCc1cc(Br)c(=O)n(CC)c1-c1ccc(OC)cc1Cl [compound 328] | H (more than 50% control value) | H (more than 50% control value) | H (more than 50% control value) | H (more than 50% control value) | H (more than 50% control value) | L (50% or less control value) | H (more than 50% control value) | L (50% or less control value)
12 | CCCc1ccc(=O)n(C)c1-c1ccc(F)cc1Cl [compound 329] | H (more than 50% control value) | L (50% or less control value) | H (more than 50% control value) | L (50% or less control value) | L (50% or less control value) | H (more than 50% control value) | L (50% or less control value) | L (50% or less control value)
13 | CCc1cc(Cl)c(=O)n(C)c1-c1ccc(O)cc1Cl [compound 330] | H (more than 50% control value) | L (50% or less control value) | L (50% or less control value) | L (50% or less control value) | H (more than 50% control value) | L (50% or less control value) | L (50% or less control value) | L (50% or less control value)
14 | CCCc1ccc(=S)n(CC)c1-c1ccc(F)cc1Cl [compound 331] | H (more than 50% control value) | H (more than 50% control value) | H (more than 50% control value) | L (50% or less control value) | L (50% or less control value) | H (more than 50% control value) | L (50% or less control value) | L (50% or less control value)
15 | CCCc1cc(Cl)c(=O)n(C)c1-c1ccc(F)cc1Cl [compound 332] | H (more than 50% control value) | H (more than 50% control value) | H (more than 50% control value) | H (more than 50% control value) | L (50% or less control value) | H (more than 50% control value) | H (more than 50% control value) | L (50% or less control value)
16 | CCCc1ccc(=O)n(C)c1-c1ccc(OC)cc1Cl [compound 334] | H (more than 50% control value) | L (50% or less control value) | H (more than 50% control value) | L (50% or less control value) | L (50% or less control value) | H (more than 50% control value) | L (50% or less control value) | L (50% or less control value)
17 | CCCc1cc(Cl)c(=O)n(C)c1-c1ccc(OC)cc1Cl [compound 335] | H (more than 50% control value) | H (more than 50% control value) | H (more than 50% control value) | H (more than 50% control value) | H (more than 50% control value) | H (more than 50% control value) | H (more than 50% control value) | L (50% or less control value)
18 | CCCc1cc(Br)c(=O)n(C)c1-c1ccc(OC)cc1Cl [compound 336] | H (more than 50% control value) | H (more than 50% control value) | H (more than 50% control value) | H (more than 50% control value) | H (more than 50% control value) | L (50% or less control value) | H (more than 50% control value) | L (50% or less control value)
